{"source": "patent US7250442B2", "about": "“Dihydroindol-2-one derivatives as steroid hormone nuclear receptor modulators” (Eli Lilly and Company, priority 2003, dated 2007)", "data": [{"target": "T1, human MR (Homo sapiens, UniProt P08235)", "T1 construct": "The full length human MR gene is cloned from a human kidney or human brain cDNA library; made in house; host or cells: Sf9 insect cells (baculovirus, pAcHLT transfer vector)", "T1 sequence (P08235 1-984)": "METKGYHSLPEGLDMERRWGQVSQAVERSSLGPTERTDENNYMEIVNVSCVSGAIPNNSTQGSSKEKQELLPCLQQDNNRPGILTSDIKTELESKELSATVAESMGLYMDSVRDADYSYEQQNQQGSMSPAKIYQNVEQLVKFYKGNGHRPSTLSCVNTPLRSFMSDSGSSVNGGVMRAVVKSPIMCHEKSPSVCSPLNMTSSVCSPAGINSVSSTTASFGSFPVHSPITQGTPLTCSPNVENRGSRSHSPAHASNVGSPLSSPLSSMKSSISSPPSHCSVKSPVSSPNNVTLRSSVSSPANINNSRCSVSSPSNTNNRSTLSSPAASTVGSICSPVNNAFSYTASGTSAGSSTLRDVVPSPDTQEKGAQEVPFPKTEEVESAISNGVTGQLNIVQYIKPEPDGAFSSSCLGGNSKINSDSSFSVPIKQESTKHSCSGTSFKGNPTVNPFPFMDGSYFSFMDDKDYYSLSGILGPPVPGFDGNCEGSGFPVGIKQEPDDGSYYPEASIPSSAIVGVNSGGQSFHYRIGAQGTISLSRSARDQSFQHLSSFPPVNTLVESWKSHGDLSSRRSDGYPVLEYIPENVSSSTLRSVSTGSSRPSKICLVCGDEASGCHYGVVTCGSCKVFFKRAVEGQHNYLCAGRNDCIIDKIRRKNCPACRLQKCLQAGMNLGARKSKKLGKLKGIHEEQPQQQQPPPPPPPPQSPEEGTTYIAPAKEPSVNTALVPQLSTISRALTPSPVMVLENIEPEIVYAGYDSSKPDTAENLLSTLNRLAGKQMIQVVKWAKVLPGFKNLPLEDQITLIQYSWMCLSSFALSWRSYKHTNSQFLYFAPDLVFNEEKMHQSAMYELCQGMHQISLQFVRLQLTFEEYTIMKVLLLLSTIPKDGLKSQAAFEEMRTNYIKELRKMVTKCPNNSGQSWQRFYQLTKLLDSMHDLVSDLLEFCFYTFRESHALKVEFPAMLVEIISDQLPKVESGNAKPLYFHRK", "experiment": "Mineralocorticoid Receptor Binding Assay ([3H]-aldosterone displacement)", "conditions": "full length human MR expressed in Sf9 cells, 0.5 nM [3H]-aldosterone", "how_it_was_run": "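Full-length human MR expressed in Sf9 cells; lysate (20-25 μg protein) incubated with 0.5 nM [3H]-aldosterone and test compound in molybdate/Tris/phosphate/glycerol buffer pH 7.5, 16 h at 4 °C. Bound ligand measured by filtration and scintillation counting; IC50 converted to Ki via Cheng-Prusoff.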", "units": {"Ki": "nM"}, "values": [{"smiles": "Cc1cc(C2(c3cc(C)c(O)c(C)c3)C(=O)N(Cc3c(C)cccc3C)c3ccccc32)cc(C)c1O", "note": "[Example 107, 1-(2,6-Dimethyl-benzyl)-3,3-bis-(4-hydroxy-3,5-dimethyl-phenyl)-1,3-dihydro-indol-2-one]", "Ki": "≤ 500"}, {"smiles": "Cc1cc(C2(c3cc(C)c(O)c(C)c3)C(=O)N(Cc3cccc(Cl)c3)c3ccccc32)cc(C)c1O", "note": "[Example 60, 1-(3-Chloro-benzyl)-3,3-bis-(4-hydroxy-3,5-dimethyl-phenyl)-1,3-dihydro-indol-2-one]", "Ki": "≤ 500"}, {"smiles": "Cc1ccc2c(c1)C(c1cc(C)c(O)c(C)c1)(c1cc(C)c(O)c(C)c1)C(=O)N2Cc1csc(C)n1", "note": "[Example 93, 3,3-Bis-(4-hydroxy-3,5-dimethyl-phenyl)-5-methyl-1-(2-methyl-thiazol-4-ylmethyl)-1,3-dihydro-indol-2-one]", "Ki": "≤ 500"}, {"smiles": "COC(=O)c1cccc(CN2C(=O)C(c3cc(C)c(O)c(C)c3)(c3cc(C)c(O)c(C)c3)c3ccccc32)c1", "note": "[Example 55, 3-[3,3-Bis-(4-hydroxy-3,5-dimethyl-phenyl)-2-oxo-2,3-dihydro-indol-1-ylmethyl]-benzoic acid methyl ester]", "Ki": "≤ 500"}, {"smiles": "Cc1cc(C2(c3cc(C)c(O)c(C)c3)C(=O)N(Cc3cccc(C(F)(F)F)c3)c3ccccc32)cc(C)c1O", "note": "[Example 61, 3,3-Bis-(4-hydroxy-3,5-dimethyl-phenyl)-1-(3-trifluoromethyl-benzyl)-1,3-dihydro-indol-2-one]", "Ki": "≤ 500"}]}]}
